Assay results taken from patent US8178523B2, “Compounds for the treatment of hepatitis C” (Bristol-Myers Squibb Company, priority 2008, dated 2012).

Legend:
[1] = system: HCV replicon cells; assay: HCV replicon FRET / luciferase assay; type: cell-based; settings: Hepatitis C virus, 50% reduction in FRET or luciferase activity
Method: FRET Assay Preparation. The HCV FRET screening assay was performed in 96-well cell culture plates. The FRET peptide (Anaspec, Inc.) (Taliani et al., Anal. Biochem. 1996, 240, 60-67) contains a fluorescence donor, EDANS, near one end of the peptide and an acceptor, DABCYL, near the other end. The fluorescence of the peptide is quenched by […] resonance energy transfer (RET) between the donor and the acceptor, but as the NS3 protease cleaves the peptide the products are released from RET quenching and the fluorescence of the donor becomes apparent. The assay reagent was made as follows: 5× cell Luciferase cell culture lysis reagent from Promega (#E153A) diluted to 1× with dH2O, NaCl added to 150 mM final, the FRET peptide diluted to 20 μM final from a 2 mM stock.
To prepare plates, HCV replicon cells, with or without a Renilla luciferase reporter gene, were trypsinized and plated in a 96-well plate with titrated test compounds added in columns 3 through 12; columns 1 and 2 contained a control compound (HCV control inhibitor), and the bottom row contained cells with DMSO only. The plates were then placed in a CO2 incubator at 37° C.
Assays. Subsequent to addition of the test compounds described above (FRET Assay Preparation), at various times the plate was removed and Alamar blue solution (Trek Diagnostics, #00-100) was added to measure cellular toxicity. After reading in a Cytoflour 4000 instrument (PE Biosystems), plates were rinsed with PBS and then used for FRET assay by the addition of 30 ul of the FRET peptide assay reagent described above (FRET Assay Preparation) per well. The plate was then placed into the Cytoflour 4000 instrument which had been set to 340 excite/490 emission, automatic mode for up to 20 cycles and the plate read in a kinetic mode. Typically, the signal to noise using an endpoint analysis after the reads was at least three-fold. Alternatively, after Alamar blue reading, plates were rinsed with PBS, then used for luciferase assay using the Promega Dual-Glo Luciferase Assay System or the Promega EnduRen Live Cell Substrate assay.
Compound analysis was performed by quantification of the relative HCV replicon inhibition and the relative cytotoxicity values. To calculate cytoxicity values, the average Alamar Blue fluorescence signals from the control wells were set as 100% non-toxic. The individual signals in each of the compound test wells were then divided by the average control signal and multiplied by 100% to determine […]. To calculate the HCV replicon inhibition values, an average background value was obtained from the two wells containing the highest amount of HCV control inhibitor at the end of the assay period. These numbers were similar to those obtained from naïve Huh-7 cells. The background numbers were then subtracted from the average signal obtained from the control wells and this number was used as 100% activity. The individual signals in each of the compound test wells were then divided by the averaged control values after background subtraction and multiplied by 100% to determine percent activity. EC50 values were calculated as the concentration which caused a 50% reduction in FRET or luciferase activity. The two numbers generated for the compound plate, percent cytoxicity and percent activity, were used to determine compounds of interest for further analysis.

[2] = target: T1, HCV NS5B RdRp (Hepatitis C virus genotype 1b, UniProt Q9WMX2); assay: HCV NS5B RdRp enzyme assay; type: biochemical; settings: HCV NS5B genotype 1b, standard or modified RdRp assay not given
T1 construct: The protein was expressed with an 18 amino acid C-terminal truncation to enhance the solubility; made in house; host or cells: E. coli BL21(DE3)
Method: HCV NS5B RdRp cloning, expression, and purification. The cDNA encoding the NS5B protein of HCV, genotype 1b, was cloned into the pET21a expression vector. The protein was expressed with an 18 amino acid C-terminal truncation to enhance the solubility. The E. coli competent cell line BL21(DE3) was used for expression of the protein. Cultures were grown at 37° C. for ˜4 hours until the cultures reached an optical density of 2.0 at 600 nm. The cultures were cooled to 20° C. and induced with 1 mM […]. Fresh ampicillin was added to a final concentration of 50 μg/ml and the cells were grown overnight at 20° C.
Cell pellets (3 L) were lysed for purification to yield 15-24 mgs of purified NS5B. The lysis buffer consisted of 20 mM Tris-HCl, pH 7.4, 500 mM NaCl, 0.5% triton X-100, 1 mM DTT, 1 mM EDTA, 20% glycerol, 0.5 mg/ml lysozyme, 10 mM MgCl2, 15 ug/ml deoxyribonuclease I, and Complete TM protease inhibitor tablets (Roche). After addition of the lysis buffer, frozen cell pellets were resuspended using a tissue homogenizer. To reduce the viscosity of the sample, aliquots of the lysate were sonicated on ice using a microtip attached to a Branson sonicator. The sonicated lysate was centrifuged at 100,000×g for 1 hr at 4° C. and filtered through a 0.2 μm filter unit (Corning).
The protein was purified using two sequential chromatography steps: Heparin sepharose CL-6B and polyU sepharose 4B (Pharmacia). The chromatography buffers were identical to the lysis buffer but contained no lysozyme, deoxyribonuclease I, MgCl2 or protease inhibitor and the NaCl concentration of the buffer was adjusted according to the requirements for charging the protein onto the column. Each column was eluted with a NaCl gradient which varied in length from 5-50 column volumes depending on the column type. After the final chromatography step, the resulting purity of the enzyme is >90% based on SDS-PAGE analysis. The enzyme was aliquoted and stored at −80° C.
Standard HCV NS5B RdRp enzyme assay. HCV RdRp genotype 1b assays were run in a final volume of 60 μl in 96 well plates (Corning 3600). The assay buffer is composed of 20 mM Hepes, pH 7.5, 2.5 mM KCl, 2.5 mM MgCl2, 1 mM DTT, 1.6 U RNAse inhibitor (Promega N2515), 0.01 mg/ml BSA (Sigma B6917), and 2% glycerol. All compounds were serially diluted (3-fold) in DMSO and diluted further in water such that the final concentration of DMSO in the assay was 2%. HCV RdRp genotype 1b enzyme was used at a final concentration of 28 nM. A polyA template was used at 6 nM, and a biotinylated oligo-dT12 primer was used at 180 nM final concentration. Template was obtained commercially (Amersham 27-4110). Biotinylated primer was prepared by Sigma Genosys. 3H-UTP was used at (0.29 μM total UTP). Reactions were initiated by the addition of enzyme, incubated at 30° C. for 60 min, and stopped by adding 25 μl of 50 mM EDTA containing SPA beads (4 μg/μl, Amersham RPNQ 0007). Plates were read on a Packard Top Count NXT after >1 hr incubation at room temperature.
Modified HCV NS5B RdRp enzyme assay. A modified enzyme assay was performed essentially as described for the standard enzyme assay except for the following: The biotinylated oligo dT12 primer was precaptured on streptavidin-coated SPA beads by mixing primer and beads in assay buffer and incubating at room temperature for one hour. Unbound primer was removed after centrifugation. The primer-bound beads were resuspended in 20 mM Hepes buffer, pH 7.5 and used in the assay at final concentrations of 20 nM primer and […] beads. Order of addition in the assay: enzyme (1.75 nM) was added to diluted compound followed by the addition of a mixture of template (0.36 nM), 3H-UTP (0.6 μCi, 0.29 μM), and primer-bound beads, to initiate the reaction; concentrations given are final. Reactions were allowed to proceed for 4 hours at 30° C.
IC50 values for compounds were determined using seven different [I]. […]

T1 sequence (Q9WMX2 2420-2992): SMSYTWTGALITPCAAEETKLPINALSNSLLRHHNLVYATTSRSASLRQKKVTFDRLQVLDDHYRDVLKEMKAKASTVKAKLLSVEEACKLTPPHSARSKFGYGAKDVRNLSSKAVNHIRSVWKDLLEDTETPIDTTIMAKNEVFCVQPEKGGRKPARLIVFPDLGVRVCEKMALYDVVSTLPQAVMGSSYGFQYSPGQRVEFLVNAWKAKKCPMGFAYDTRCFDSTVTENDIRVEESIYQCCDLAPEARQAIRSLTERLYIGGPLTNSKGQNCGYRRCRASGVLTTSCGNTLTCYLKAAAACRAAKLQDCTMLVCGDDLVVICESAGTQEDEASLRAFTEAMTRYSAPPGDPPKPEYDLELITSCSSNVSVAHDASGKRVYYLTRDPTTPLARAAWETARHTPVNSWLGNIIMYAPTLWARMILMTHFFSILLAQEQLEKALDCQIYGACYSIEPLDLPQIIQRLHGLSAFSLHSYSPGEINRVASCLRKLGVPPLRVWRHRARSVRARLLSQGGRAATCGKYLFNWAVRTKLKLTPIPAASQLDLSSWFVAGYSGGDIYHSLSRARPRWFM

SMILES	EC50 ([1]; numeric values)	IC50 ([2]; numeric values)	EC50 ([1]; class symbols)	IC50 ([2]; class symbols)
COc1ccc2c(c1)C1CC1(C(=O)N1CCC(c3nnc(C)o3)CC1)Cn1c-2c(C2CCCCC2)c2ccc(C(=O)NS(=O)(=O)C(C)C)cc21 (stereo not shown)	110 nM	70 nM	–	–
COc1ccc(-c2cnn(C3CCN(C(=O)C45CC4c4cc(OC)ccc4-c4c(C6CCCCC6)c6ccc(C(=O)NS(=O)(=O)N(C)C)cc6n4C5)CC3)c2)cc1 (stereo not shown)	–	–	2 to 500 nM	2 to 500 nM
CCCc1noc(C2CCN(C(=O)C34CC3c3cc(OC)ccc3-c3c(C5CCCCC5)c5ccc(C(=O)NS(=O)(=O)N(C)C)cc5n3C4)CC2)n1 (stereo not shown)	–	–	2 to 500 nM	2 to 500 nM
COc1ccc2c(c1)C=C(C(=O)N1CCC(c3nncn3C)CC1)Cn1c-2c(C2CCCCC2)c2ccc(C(=O)NS(=O)(=O)N(C)C)cc21	–	–	2 to 500 nM	2 to 500 nM
COc1ccc2c(c1)C=C(C(=O)N1CCCCC1c1nc(C(C)C)no1)Cn1c-2c(C2CCCCC2)c2ccc(C(=O)NS(=O)(=O)N(C)C)cc21 (stereo not shown)	1000 nM	150 nM	–	–
COc1ccc2c(c1)C1CC1(C(=O)N1CCC(c3nc(C)no3)CC1)Cn1c-2c(C2CCCCC2)c2ccc(C(=O)NS(=O)(=O)N(C)C)cc21 (stereo not shown)	90 nM	30 nM	–	–
COc1ccc2c(c1)C1CC1(C(=O)N1CCC(c3nnc(C(C)C)o3)CC1)Cn1c-2c(C2CCCCC2)c2ccc(C(=O)NS(=O)(=O)C(C)C)cc21 (stereo not shown)	–	–	2 to 500 nM	2 to 500 nM
COc1ccc2c(c1)C1CC1(C(=O)N1CCC(c3nnc(N)s3)CC1)Cn1c-2c(C2CCCCC2)c2ccc(C(=O)NS(=O)(=O)N(C)C)cc21 (stereo not shown)	190 nM	60 nM	–	–
COc1ccc2c(c1)C=C(C(=O)N1CCC(c3nc(C)no3)CC1)Cn1c-2c(C2CCCCC2)c2ccc(C(=O)NS(=O)(=O)N(C)C)cc21	230 nM	90 nM	–	–
COc1ccc2c(c1)C1CC1(C(=O)N1CCCCC1c1nccs1)Cn1c-2c(C2CCCCC2)c2ccc(C(=O)NS(=O)(=O)N(C)C)cc21 (stereo not shown)	290 nM	70 nM	–	–
COc1ccc2c(c1)C=C(C(=O)N1CCCCC1c1nccs1)Cn1c-2c(C2CCCCC2)c2ccc(C(=O)NS(=O)(=O)N(C)C)cc21 (stereo not shown)	460 nM	100 nM	–	–
COc1ccc2c(c1)C1CC1(C(=O)N1CCC(c3cc(-c4ccco4)n[nH]3)CC1)Cn1c-2c(C2CCCCC2)c2ccc(C(=O)NS(=O)(=O)N(C)C)cc21 (stereo not shown)	–	–	2 to 500 nM	2 to 500 nM
COc1ccc2c(c1)C1CC1(C(=O)N1CCC(c3c[nH]c4ccccc34)CC1)Cn1c-2c(C2CCCCC2)c2ccc(C(=O)NS(=O)(=O)C(C)C)cc21 (stereo not shown)	–	–	2 to 500 nM	2 to 500 nM
COc1ccc2c(c1)C1CC1(C(=O)N1CCC(c3nncn3C)CC1)Cn1c-2c(C2CCCCC2)c2ccc(C(=O)NS(=O)(=O)N(C)C)cc21 (stereo not shown)	–	–	2 to 500 nM	2 to 500 nM
CCc1nnc(C2CCN(C(=O)C34CC3c3cc(OC)ccc3-c3c(C5CCCCC5)c5ccc(C(=O)NS(=O)(=O)C(C)C)cc5n3C4)CC2)o1 (stereo not shown)	–	–	2 to 500 nM	2 to 500 nM
COc1ccc2c(c1)C1CC1(C(=O)N1CCC(n3c(C)nnc3C)CC1)Cn1c-2c(C2CCCCC2)c2ccc(C(=O)NS(=O)(=O)N(C)C)cc21 (stereo not shown)	–	–	2 to 500 nM	2 to 500 nM
COc1ccc2c(c1)C1CC1(C(=O)N1CCC(c3nnc(C)o3)CC1)Cn1c-2c(C2CCCCC2)c2ccc(C(=O)NS(=O)(=O)N(C)C)cc21 (stereo not shown)	50 nM	20 nM	–	–
COc1ccc2c(c1)C1CC1(C(=O)N1CCC(n3cc(-c4ccccc4)cn3)CC1)Cn1c-2c(C2CCCCC2)c2ccc(C(=O)NS(=O)(=O)N(C)C)cc21 (stereo not shown)	–	–	2 to 500 nM	2 to 500 nM
COc1ccc2c(c1)C1CC1(C(=O)N1CCC(n3cc(-c4ccccc4Cl)cn3)CC1)Cn1c-2c(C2CCCCC2)c2ccc(C(=O)NS(=O)(=O)N(C)C)cc21 (stereo not shown)	–	–	2 to 500 nM	2 to 500 nM
COc1ccc2c(c1)C1CC1(C(=O)N1CCC(c3nnc(-c4ccccc4)o3)CC1)Cn1c-2c(C2CCCCC2)c2ccc(C(=O)NS(=O)(=O)N(C)C)cc21 (stereo not shown)	–	–	2 to 500 nM	2 to 500 nM
COc1ccc2c(c1)C1CC1(C(=O)N1CCC(c3nc(C)no3)CC1)Cn1c-2c(C2CCCCC2)c2ccc(C(=O)NS(=O)(=O)C(C)C)cc21 (stereo not shown)	100 nM	30 nM	–	–
COc1ccc2c(c1)C1CC1(C(=O)N1CCC(c3nc4cc(C)ccc4[nH]3)CC1)Cn1c-2c(C2CCCCC2)c2ccc(C(=O)NS(=O)(=O)N(C)C)cc21 (stereo not shown)	–	–	2 to 500 nM	2 to 500 nM
COc1ccc2c(c1)C1CC1(C(=O)N1CCCCC1c1nc(C(C)C)no1)Cn1c-2c(C2CCCCC2)c2ccc(C(=O)NS(=O)(=O)N(C)C)cc21 (stereo not shown)	–	–	2 to 500 nM	2 to 500 nM
COc1ccc2c(c1)C1CC1(C(=O)N1CCC(c3nc4ccccc4o3)CC1)Cn1c-2c(C2CCCCC2)c2ccc(C(=O)NS(=O)(=O)N(C)C)cc21 (stereo not shown)	–	–	2 to 500 nM	2 to 500 nM
COc1ccc2c(c1)C1CC1(C(=O)N1CCC(c3noc4cc(F)ccc34)CC1)Cn1c-2c(C2CCCCC2)c2ccc(C(=O)N[S+]([O-])N(C)C)cc21 (stereo not shown)	–	–	2 to 500 nM	2 to 500 nM
COc1ccc2c(c1)C1CC1(C(=O)N1CCC(c3cc4ccccc4o3)CC1)Cn1c-2c(C2CCCCC2)c2ccc(C(=O)NS(=O)(=O)C(C)C)cc21 (stereo not shown)	–	–	> 500 nM	2 to 500 nM
